Test results from PMC8620908, “Design, Synthesis, In Vitro Anticancer Evaluation and Molecular Modelling Studies of 3,4,5-Trimethoxyphenyl-Based Derivatives as Dual EGFR/HDAC Hybrid Inhibitors” (Pharmaceuticals, 2021).
Read-outs that look alike come from different tables or passages of the source.

Legend:
HepG2 = assay: Antiproliferative MTT assay, HepG2; conditions: Homo sapiens, HepG2, read-out: Antiproliferative Activity IC50 ± SEM, HepG2
A549 = assay: Antiproliferative MTT assay, A549; conditions: Homo sapiens, A549, read-out: Antiproliferative Activity IC50 ± SEM, A549
MCF-7 = assay: Antiproliferative MTT assay, MCF-7; conditions: Homo sapiens, MCF7, read-out: Antiproliferative Activity IC50 ± SEM, MCF-7
HCT116 = assay: Antiproliferative MTT assay, HCT116; conditions: Homo sapiens, HCT-116, read-out: Antiproliferative Activity IC50 ± SEM, HCT116
Caspase-8 = Caspase-8 level assay in HepG2 cancer cell line; type: cell-based, human; conditions: HepG2 cancer cell line
Caspase-3 = Caspase-3 level assay in HepG2 cancer cell line; type: cell-based, human
Bax = Bax level assay in HepG2 cancer cell line; type: cell-based; conditions: HepG2 cancer cell line
HDAC4 = HDAC4 (Homo sapiens, UniProt P56524); assay: In vitro HDAC inhibition assay, HDAC4
HDAC4, sequence (P56524 whole entry): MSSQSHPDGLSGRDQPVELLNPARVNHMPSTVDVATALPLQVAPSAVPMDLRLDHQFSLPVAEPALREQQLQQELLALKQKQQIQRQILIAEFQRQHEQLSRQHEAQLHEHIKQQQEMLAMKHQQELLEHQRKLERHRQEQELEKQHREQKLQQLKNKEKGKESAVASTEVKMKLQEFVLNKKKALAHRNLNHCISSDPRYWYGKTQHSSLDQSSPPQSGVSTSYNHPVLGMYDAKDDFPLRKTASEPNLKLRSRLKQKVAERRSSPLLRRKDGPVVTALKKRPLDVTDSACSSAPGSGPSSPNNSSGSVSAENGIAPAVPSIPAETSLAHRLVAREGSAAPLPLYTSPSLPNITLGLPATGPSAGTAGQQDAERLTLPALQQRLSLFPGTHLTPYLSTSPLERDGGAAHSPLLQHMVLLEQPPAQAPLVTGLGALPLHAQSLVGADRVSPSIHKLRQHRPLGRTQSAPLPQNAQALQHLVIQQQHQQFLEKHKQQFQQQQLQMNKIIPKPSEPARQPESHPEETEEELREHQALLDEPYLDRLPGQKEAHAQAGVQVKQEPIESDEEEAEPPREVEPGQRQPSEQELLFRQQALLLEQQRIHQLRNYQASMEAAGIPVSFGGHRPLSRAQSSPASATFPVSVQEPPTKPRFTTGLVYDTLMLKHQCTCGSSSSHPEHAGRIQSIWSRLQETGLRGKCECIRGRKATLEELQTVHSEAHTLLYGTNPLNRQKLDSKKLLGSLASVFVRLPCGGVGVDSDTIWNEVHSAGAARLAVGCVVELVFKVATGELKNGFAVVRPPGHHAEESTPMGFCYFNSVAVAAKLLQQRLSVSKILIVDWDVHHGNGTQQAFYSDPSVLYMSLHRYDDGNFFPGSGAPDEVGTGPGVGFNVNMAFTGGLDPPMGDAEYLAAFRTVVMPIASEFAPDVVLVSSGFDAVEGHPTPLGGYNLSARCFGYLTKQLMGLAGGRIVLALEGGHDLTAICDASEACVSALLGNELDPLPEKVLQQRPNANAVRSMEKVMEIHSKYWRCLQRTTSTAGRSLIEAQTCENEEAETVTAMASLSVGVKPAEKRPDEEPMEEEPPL

HDAC6 = target: T1, HDAC6 (Homo sapiens, UniProt Q9UBN7); assay: In vitro HDAC inhibition assay, HDAC6
T1 sequence (Q9UBN7 1-1215): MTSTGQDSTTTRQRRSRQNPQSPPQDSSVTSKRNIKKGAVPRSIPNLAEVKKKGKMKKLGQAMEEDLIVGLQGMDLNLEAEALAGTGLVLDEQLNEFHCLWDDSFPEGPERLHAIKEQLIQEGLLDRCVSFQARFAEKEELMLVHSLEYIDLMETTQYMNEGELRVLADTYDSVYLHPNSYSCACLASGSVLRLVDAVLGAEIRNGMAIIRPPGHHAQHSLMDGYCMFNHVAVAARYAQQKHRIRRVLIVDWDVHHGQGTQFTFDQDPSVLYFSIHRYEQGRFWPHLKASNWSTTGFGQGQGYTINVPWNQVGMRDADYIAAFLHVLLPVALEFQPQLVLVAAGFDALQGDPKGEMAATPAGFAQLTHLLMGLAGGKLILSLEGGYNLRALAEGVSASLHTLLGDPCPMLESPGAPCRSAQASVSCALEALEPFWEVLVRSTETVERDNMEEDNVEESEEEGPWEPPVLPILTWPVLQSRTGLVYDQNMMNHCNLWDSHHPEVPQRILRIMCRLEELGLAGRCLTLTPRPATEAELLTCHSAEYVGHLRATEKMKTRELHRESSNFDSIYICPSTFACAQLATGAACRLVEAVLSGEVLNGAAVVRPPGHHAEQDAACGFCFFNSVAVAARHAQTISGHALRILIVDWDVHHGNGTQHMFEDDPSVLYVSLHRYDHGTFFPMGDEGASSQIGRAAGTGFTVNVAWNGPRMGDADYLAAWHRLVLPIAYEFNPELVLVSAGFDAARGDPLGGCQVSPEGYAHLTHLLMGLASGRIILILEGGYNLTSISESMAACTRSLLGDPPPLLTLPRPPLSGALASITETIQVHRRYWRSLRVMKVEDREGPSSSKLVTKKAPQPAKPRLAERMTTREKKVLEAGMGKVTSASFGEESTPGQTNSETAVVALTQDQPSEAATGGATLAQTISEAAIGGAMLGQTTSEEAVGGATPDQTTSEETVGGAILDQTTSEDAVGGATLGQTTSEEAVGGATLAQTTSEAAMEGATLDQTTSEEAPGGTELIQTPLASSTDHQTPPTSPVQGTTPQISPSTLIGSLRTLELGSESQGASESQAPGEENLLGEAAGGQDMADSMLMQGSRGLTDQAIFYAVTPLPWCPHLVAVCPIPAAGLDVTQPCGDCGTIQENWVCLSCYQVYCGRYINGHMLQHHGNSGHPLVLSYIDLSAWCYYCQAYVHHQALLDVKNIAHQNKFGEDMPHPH

HDAC2 = HDAC2 (Homo sapiens, UniProt Q92769); assay: In vitro HDAC inhibition assay, HDAC2
HDAC2, sequence (Q92769 whole entry): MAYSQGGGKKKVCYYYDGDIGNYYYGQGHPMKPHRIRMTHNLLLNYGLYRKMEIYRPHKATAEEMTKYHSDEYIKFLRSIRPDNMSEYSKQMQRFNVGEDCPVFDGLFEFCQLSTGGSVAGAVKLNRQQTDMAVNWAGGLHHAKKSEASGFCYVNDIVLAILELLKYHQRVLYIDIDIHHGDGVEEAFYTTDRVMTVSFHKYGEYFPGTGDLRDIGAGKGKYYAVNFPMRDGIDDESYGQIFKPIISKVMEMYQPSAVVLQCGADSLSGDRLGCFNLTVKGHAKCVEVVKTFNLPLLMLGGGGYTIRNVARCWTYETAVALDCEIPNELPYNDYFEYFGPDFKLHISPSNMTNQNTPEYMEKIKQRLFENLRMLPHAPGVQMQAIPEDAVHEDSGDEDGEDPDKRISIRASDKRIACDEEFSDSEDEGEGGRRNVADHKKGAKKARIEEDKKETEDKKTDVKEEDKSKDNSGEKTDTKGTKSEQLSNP

HDAC1 = HDAC1 (Homo sapiens, UniProt Q13547); assay: In vitro HDAC inhibition assay, HDAC1
HDAC1, sequence (Q13547 whole entry): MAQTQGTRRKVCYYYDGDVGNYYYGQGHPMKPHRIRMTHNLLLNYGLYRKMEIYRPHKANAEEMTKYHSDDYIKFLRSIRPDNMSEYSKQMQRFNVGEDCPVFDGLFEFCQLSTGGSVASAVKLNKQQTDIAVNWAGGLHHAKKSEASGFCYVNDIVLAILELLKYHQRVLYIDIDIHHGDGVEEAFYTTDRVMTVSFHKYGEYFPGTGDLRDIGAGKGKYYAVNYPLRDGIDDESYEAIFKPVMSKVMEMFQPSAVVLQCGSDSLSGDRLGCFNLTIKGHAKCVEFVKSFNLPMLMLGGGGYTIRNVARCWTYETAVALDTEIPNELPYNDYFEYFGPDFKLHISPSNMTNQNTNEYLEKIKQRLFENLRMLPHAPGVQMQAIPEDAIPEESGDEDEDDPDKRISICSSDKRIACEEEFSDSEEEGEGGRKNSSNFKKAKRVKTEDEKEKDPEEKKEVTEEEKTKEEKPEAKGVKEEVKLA

HDAC8 = target: T2, HDAC8 (Homo sapiens, UniProt Q9BY41); assay: In vitro HDAC inhibition assay, HDAC8
T2 sequence (Q9BY41 1-377): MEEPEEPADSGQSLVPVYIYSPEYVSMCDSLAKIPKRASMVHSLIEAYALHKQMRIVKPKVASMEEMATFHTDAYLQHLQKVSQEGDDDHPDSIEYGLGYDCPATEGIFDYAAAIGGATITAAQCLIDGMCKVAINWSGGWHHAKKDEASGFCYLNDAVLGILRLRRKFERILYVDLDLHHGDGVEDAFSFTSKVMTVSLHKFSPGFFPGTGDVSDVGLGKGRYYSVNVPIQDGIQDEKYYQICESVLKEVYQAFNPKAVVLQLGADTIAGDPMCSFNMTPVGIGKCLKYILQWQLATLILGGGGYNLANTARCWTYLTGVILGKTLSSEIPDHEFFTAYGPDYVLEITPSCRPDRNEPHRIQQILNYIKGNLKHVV

EGFR = EGFR (Homo sapiens, UniProt P00533); assay: EGFR-TK inhibition, cell-free assay; type: biochemical
EGFR, sequence (P00533 25-1210): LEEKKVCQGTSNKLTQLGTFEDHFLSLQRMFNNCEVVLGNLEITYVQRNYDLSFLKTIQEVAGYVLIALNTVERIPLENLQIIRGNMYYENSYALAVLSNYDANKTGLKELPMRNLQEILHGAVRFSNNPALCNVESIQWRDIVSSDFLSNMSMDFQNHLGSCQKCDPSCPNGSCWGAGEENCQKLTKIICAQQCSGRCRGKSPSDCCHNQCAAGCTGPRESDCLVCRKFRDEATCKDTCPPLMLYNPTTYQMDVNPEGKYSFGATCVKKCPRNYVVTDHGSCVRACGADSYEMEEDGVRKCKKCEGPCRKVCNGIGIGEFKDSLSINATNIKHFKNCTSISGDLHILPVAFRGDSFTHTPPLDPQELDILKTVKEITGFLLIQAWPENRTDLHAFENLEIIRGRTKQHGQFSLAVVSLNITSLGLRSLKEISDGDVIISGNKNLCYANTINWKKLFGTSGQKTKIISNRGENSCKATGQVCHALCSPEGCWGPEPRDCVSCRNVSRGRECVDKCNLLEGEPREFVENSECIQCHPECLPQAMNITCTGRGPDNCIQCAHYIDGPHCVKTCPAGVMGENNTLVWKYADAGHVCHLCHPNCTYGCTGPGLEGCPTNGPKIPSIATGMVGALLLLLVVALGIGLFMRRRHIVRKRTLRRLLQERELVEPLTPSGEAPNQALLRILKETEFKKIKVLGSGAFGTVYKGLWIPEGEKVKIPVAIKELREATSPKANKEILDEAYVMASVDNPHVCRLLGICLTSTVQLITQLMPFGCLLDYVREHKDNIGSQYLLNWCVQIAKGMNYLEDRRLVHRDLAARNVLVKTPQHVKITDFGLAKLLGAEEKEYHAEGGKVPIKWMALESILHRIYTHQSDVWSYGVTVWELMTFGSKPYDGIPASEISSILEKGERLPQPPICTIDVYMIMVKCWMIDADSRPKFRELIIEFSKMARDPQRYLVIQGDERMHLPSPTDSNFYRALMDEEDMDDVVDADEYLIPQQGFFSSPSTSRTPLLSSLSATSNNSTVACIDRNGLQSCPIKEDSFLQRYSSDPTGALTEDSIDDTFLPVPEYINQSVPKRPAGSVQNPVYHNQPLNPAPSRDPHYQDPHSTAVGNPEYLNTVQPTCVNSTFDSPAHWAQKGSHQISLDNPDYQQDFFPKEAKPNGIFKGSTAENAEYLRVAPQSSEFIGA

Row | Structure (SMILES) | melting point | IC50 (HepG2) | IC50 (A549) | IC50 (MCF-7) | IC50 (HCT116) | IC50 (HDAC4) | IC50 (HDAC6) | IC50 (HDAC2) | IC50 (HDAC1) | IC50 (HDAC8) | IC50 (EGFR) | Caspase-8 Conc (Caspase-8) | Caspase-8 Conc (Caspase-8; listed as staurosporine) | Caspase-3 Conc (Caspase-3) | Caspase-3 Conc (Caspase-3; listed as staurosporine) | Bax Conc (Bax) | Bax Conc (Bax; listed as staurosporine)
1 | COc1cc(-c2cc(-c3ccc(OCCCCC(=O)O)cc3)[nH]c(=O)c2C#N)cc(OC)c1OC [3a, 5-(4-(5-Cyano-6-Oxo-4-(3,4,5-Trimethoxyphenyl)-1,6-Dihydropyridin-2-yl)Phenoxy)Pentanoic Acid] | 224 to 228 °C | 65.8 ± 3.55 µM | 31 ± 1.67 µM | 46.4 ± 2.54 µM | 23.5 ± 1.27 µM | – | – | – | – | – | – | – | – | – | – | – | –
2 | CN[C@@H]1C[C@H]2O[C@@](C)([C@@H]1OC)n1c3ccccc3c3c4c(c5c6ccccc6n2c5c31)C(=O)NC4 [Staurosporine, reference compound] | – | – | – | – | – | – | – | – | – | – | – | 1.343 ± 0.026 ng/mL | 1.343 ng/mL | 445.9 ± 15.39 pg/mL | 445.9 pg/mL | 362.2 ± 9.61 pg/mL | 362.2 pg/mL
3 | COc1cc(/C=C/C(=O)c2ccc(OCCCCCCC(=O)NO)cc2)cc(OC)c1OC [4c, (E)-N-Hydroxy-7-(4-(3-(3,4,5-Trimethoxyphenyl)Acryloyl)Phenoxy)Heptanamide] | 122 to 128 °C | 2.54 ± 0.14 µM | 1.93 ± 0.14 µM | 1.18 ± 0.06 µM | 1.59 ± 0.09 µM | 8.72 µM | 0.113 µM | 0.277 µM | 0.07 µM | 5.02 µM | 0.091 ± 0.001 µM | – | – | – | – | – | –
4 | COc1cc(/C=C/C(=O)c2ccc(OCCCCC(=O)NO)cc2)cc(OC)c1OC [4a, (E)-N-Hydroxy-5-(4-(3-(3,4,5-Trimethoxyphenyl)Acryloyl)Phenoxy) Pentanamide] | 220 to 224 °C | 3.62 ± 0.2 µM | 2.07 ± 0.11 µM | 1.97 ± 0.11 µM | 3.21 ± 0.17 µM | 6.69 µM | 0.086 µM | 0.119 µM | 0.121 µM | 6.35 µM | 0.111 ± 0.002 µM | – | – | – | – | – | –
5 | COc1cc(-c2cc(-c3ccc(OCCCCCC(=O)O)cc3)[nH]c(=O)c2C#N)cc(OC)c1OC [3b, 6-(4-(5-Cyano-6-Oxo-4-(3,4,5-Trimethoxyphenyl)-1,6-Dihydropyridin-2-yl)Phenoxy) Hexanoic Acid] | – | 16.2 ± 0.87 µM | 15.3 ± 0.82 µM | 12.2 ± 0.65 µM | 15.7 ± 0.85 µM | – | – | – | – | – | – | – | – | – | – | – | –
6 | COc1cc(/C=C/C(=O)c2ccc(OCCCCC(=O)O)cc2)cc(OC)c1OC [2a, (E)-5-(4-(3-(3,4,5-Trimethoxyphenyl)Acryloyl)Phenoxy)Pentanoic Acid] | 102 to 105 °C | 88.4 ± 4.76 µM | 44.4 ± 2.39 µM | 59.9 ± 3.23 µM | 40.1 ± 2.16 µM | – | – | – | – | – | – | – | – | – | – | – | –
7 | COc1cc(/C=C/C(=O)c2ccc(OCCCCCCC(=O)O)cc2)cc(OC)c1OC [2c, (E)-7-(4-(3-(3,4,5-Trimethoxyphenyl)Acryloyl)Phenoxy)Heptanoic Acid] | 112 to 115 °C | 17.1 ± 0.92 µM | 22.7 ± 1.22 µM | 14.8 ± 0.8 µM | 16.5 ± 0.89 µM | – | – | – | – | – | – | – | – | – | – | – | –
8 | COc1cc(-c2cc(-c3ccc(OCCCCCCC(=O)O)cc3)[nH]c(=O)c2C#N)cc(OC)c1OC [3c, 7-(4-(5-Cyano-6-Oxo-4-(3,4,5-Trimethoxyphenyl)-1,6-Dihydropyridin-2-yl)Phenoxy) Heptanoic Acid] | 168 to 170 °C | 21.1 ± 1.14 µM | 21.3 ± 1.15 µM | 23.7 ± 1.28 µM | 13.9 ± 0.75 µM | – | – | – | – | – | – | – | – | – | – | – | –
9 | COc1cc(/C=C/C(=O)c2ccc(OCCCCCC(=O)O)cc2)cc(OC)c1OC [2b, (E)-6-(4-(3-(3,4,5-Trimethoxyphenyl)Acryloyl)Phenoxy)Hexanoic Acid] | 138 to 140 °C | 30.4 ± 1.64 µM | 33.7 ± 1.82 µM | 39.4 ± 2.12 µM | 23.7 ± 1.28 µM | – | – | – | – | – | – | – | – | – | – | – | –

Now from value to molecule, other results behind:

Row | melting point | IC50 (HepG2) | IC50 (A549) | IC50 (MCF-7) | IC50 (HCT116) | IC50 (HDAC4) | IC50 (HDAC6) | IC50 (HDAC2) | IC50 (HDAC1) | IC50 (HDAC8) | IC50 (EGFR) | Structure (SMILES) | Caspase-8 Conc (Caspase-8) | Caspase-8 Conc (Caspase-8; listed as staurosporine) | Caspase-3 Conc (Caspase-3) | Caspase-3 Conc (Caspase-3; listed as staurosporine) | Bax Conc (Bax) | Bax Conc (Bax; listed as staurosporine)
10 | 232 to 238 °C | 3.46 ± 0.19 µM | 2.3 ± 0.12 µM | 4.89 ± 0.26 µM | 4.67 ± 0.25 µM | 17.5 µM | 0.222 µM | 0.256 µM | 0.051 µM | 19.6 µM | 0.214 ± 0.004 µM | COc1cc(-c2cc(-c3ccc(OCCCCC(=O)NO)cc3)[nH]c(=O)c2C#N)cc(OC)c1OC [5a, 5-(4-(5-Cyano-6-Oxo-4-(3,4,5-Trimethoxyphenyl)-1,6-Dihydropyridin-2-yl)Phenoxy)-N-Hydroxypentanamide] | – | – | – | – | – | –
11 | 198 to 204 °C | 28.3 ± 0.99 µM | 18.8 ± 1.01 µM | 19.6 ± 1.05 µM | 16.9 ± 3.71 µM | – | – | – | – | – | – | COc1cc(-c2cc(-c3ccc(OCCCCCC(=O)NO)cc3)[nH]c(=O)c2C#N)cc(OC)c1OC [5b, 6-(4-(5-Cyano-6-Oxo-4-(3,4,5-Trimethoxyphenyl)-1,6-Dihydropyridin-2-yl)Phenoxy)-N-Hydroxyhexanamide] | – | – | – | – | – | –
12 | 170 to 176 °C | 27.6 ± 1.49 µM | 8.58 ± 0.46 µM | 12.1 ± 0.65 µM | 9.47 ± 0.51 µM | – | – | – | – | – | – | COc1cc(-c2cc(-c3ccc(OCCCCCCC(=O)NO)cc3)[nH]c(=O)c2C#N)cc(OC)c1OC [5c, 7-(4-(5-Cyano-6-Oxo-4-(3,4,5-Trimethoxyphenyl)-1,6-dihydropyridin-2-yl)phenoxy)-N-Hydroxyheptanamide] | – | – | – | – | – | –
